We go through six compounds from patent US9377466B2, “Compounds and methods” (Modpro AB, priority 2010, dated 2016).

Side chains are listed from the residue outwards. * marks the point of attachment. Benzoyl(4-SO2NH2) = NS(=O)(=O)c1ccc(C(=O)*)cc1; Acridin9yl = c1ccc2c(*)c3ccccc3nc2c1; X1 = COc1ccc2cc(C(=O)*)c(=O)oc2c1; Ahx = NCCCCCC(=O)O

In one series the target is phosphopeptides. To be noted: literature; cited from earlier work.
In series [1] the test system is human Carbonic Anhydrase (HCAI and HCAII). As to the kind of experiment: Extraction from lysed blood by binders on nanoparticles (SDS-PAGE, MS). The format is binding. The settings on record: lysed fresh blood, silver stained gel. Here is the method:
The selected binders were resynthesized with an Acm-protected Cys residue in position 24. After removal of the Acm group the binders were immobilized on polystyrene nanoparticles coated with Pluronic® F108-PDS, by incubation for 1 hour in 10 mM Phosphate buffer at pH 7.4 containing 150 mM NaCl. The coating material forms monolayers of PEG equipped with activated disulfide groups that spontaneously react with free thiols under the release of 2-mercaptopyridine (Fromell, K., Hulting, G., Ilichev, A., Larsson, A. & Caldwell, K. C. Analytical Chemistry 79, 8601-07 (2007)).
Approximately 60 μL of freshly drawn blood was lysed by dilution in 240 μL of distilled water followed by centrifugation to remove cell debris. HCAII resides in the red blood cells and in order to access the protein, cells have to be lysed. The supernatant was isolated and incubated with the functionalized nanoparticles for 30 minutes to allow them to capture HCAII. The particles were washed three times in PBS, and centrifuged after each wash. The binders and the captured proteins were cleaved from the particles using dithiothreitol and separated from the particles by centrifugation. […]
There are two isoforms of human Carbonic Anhydrase, HCA I and HCAII, in blood. […] The bands from the gel were cut, […] digested and analysed by MALDI-TOF-MS, displaying that the bands contained both isoforms. […]

Series [2] in a line: CD spectroscopy, mean residue ellipticity of the sixteen scaffold polypeptides. To be noted: error ±1000. The format is physicochemical. Here is the method:
The mean residue ellipticities at 222 nm, [θ]222, □ of the sixteen scaffold polypeptides were recorded at two concentrations, approximately 30 μM and approximately 1 μM, to characterize the state of aggregation, cf.
The degree of helix formation is related to the monomer-dimer equilibrium since monomers are unordered with low helical content whereas dimers are highly helical. […] While the ^1H NMR spectra have not been recorded of all sequences and of all polypeptide conjugates, it is likely that the sequences presented here are best described as molten globules.

The subject of a further series is α-casein. As to the kind of experiment: Three-step fluorescence titration with α-casein (microtitre plate). The format is binding. To be noted: polypeptide without PP1; binder in the absence of Zn^2+ ions. Here is the method: In a preliminary and simple assay executable in microtitre plate format, each of the eight binder candidates at a concentration of 500 nM in 10 mM HEPES buffer and 150 mM NaCl at pH 7.2, equipped with the fluorophor 7-methoxycoumarin-3-carboxylic acid, were titrated with α-casein in three steps (FIG. 8). Concentrations of peptides were determined from the absorbance of the coumarine probe and stock solutions at concentrations of 5 μM were prepared from which aliqiuots were transferred to the microtitre plate. […] The fluorescence emission spectre were recorded in the absence of protein, and in the presence of 500 nM, 1000 nM and 1500 nM protein to determine in a qualitative way whether or not binding was saturated at 500 nM concentration of both binder and protein. Saturation within experimental error at those concentrations is compatible with low nM affinity and tight binding.
All fluorescence experiments were conducted in 96 well polystyrene plates. All readings were performed by plate reader Molecular Devices Spectra max GEMINI XPS at 25° C. Each plate contained 300 μL of analyte. All polystyrene plates were specially prepared prior the measurements in order to minimize the unspecific binding of the analyte. All wells were filled with 1% aqueous solution of Pluronic and left overnight. […]

The test system of series [3] is hAChE. The settings on record: known inhibitor, literature; cited from earlier work.
The target of series [4] is T1, hAChE (Homo sapiens, UniProt P22303).
T1 construct: monitoring the capturing of hAChE from cerebrospinal fluid (CSF) obtained from Uppsala University hospital; from tissue; host or cells: human cerebrospinal fluid (Uppsala University Hospital)
T1 sequence (P22303 32-614): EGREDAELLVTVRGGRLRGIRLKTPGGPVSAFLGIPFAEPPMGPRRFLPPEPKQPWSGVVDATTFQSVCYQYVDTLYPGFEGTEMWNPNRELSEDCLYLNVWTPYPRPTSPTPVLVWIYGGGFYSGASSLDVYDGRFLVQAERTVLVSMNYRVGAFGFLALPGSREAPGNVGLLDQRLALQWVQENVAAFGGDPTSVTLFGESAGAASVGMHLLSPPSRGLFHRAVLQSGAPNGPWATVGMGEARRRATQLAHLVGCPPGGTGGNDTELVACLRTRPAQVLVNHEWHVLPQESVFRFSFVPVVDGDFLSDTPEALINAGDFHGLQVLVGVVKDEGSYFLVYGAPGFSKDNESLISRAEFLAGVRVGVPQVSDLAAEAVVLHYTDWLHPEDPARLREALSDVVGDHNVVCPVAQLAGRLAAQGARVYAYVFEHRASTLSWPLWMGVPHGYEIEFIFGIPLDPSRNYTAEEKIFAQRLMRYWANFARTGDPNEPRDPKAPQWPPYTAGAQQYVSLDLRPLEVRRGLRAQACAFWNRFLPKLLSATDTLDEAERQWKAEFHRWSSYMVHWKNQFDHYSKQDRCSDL
As to the kind of experiment: Capture of hAChE from cerebrospinal fluid by binder on nanoparticles (SDS-PAGE, nanoparticle ELISA). The format is binding. To be noted: binder on Pluronic-coated polystyrene nanoparticles, patient CSF, sandwich ELISA. How it is done: The selectivity of 4-C10L17-Ac was determined by monitoring the capturing of hAChE from cerebrospinal fluid (CSF) obtained from Uppsala University hospital. CSF represents a complex biological milieu with several other proteins in high concentration and one of considerable interest with regards to future applications. The selected binder was resynthesized with an acetamidomethyl-(Acm-) protected Cys residue in position 24, instead of an Ala in this position, and attached to polystyrene nanoparticles coated with Pluronic® F108-PDS by disulfide bond formation after Acm deprotection. […] After the washing steps the particles were analyzed by ELISA and gel electrophoresis. […]
The capture of hAChE by 4-C10L17-Ac was also analyzed by a nanoparticle ELISA based on luminescence. […] After three washing steps the substrate luminol was added and the resulting luminescent signal recorded. […]
Pluronic F108-PDS (Allvivo Inc.) was adsorbed to polystyrene latex nanoparticles (Bangs laboratories Inc.) by incubating a 2% (w/v) suspension of particles with 10 mg/mL of Pluronic F108-PDS over night at room temperature under constant shaking. […] Aliquots of 8 μL of the supernatants were analyzed by gradient SDS-PAGE gels electrophoresis using NuPAGE® Novex Bis-Tris 4-12% (v/w) gel and MES running buffer (Invitrogen). […]
In general terms: In an ELISA, binding on a coated surface is turned into a signal by an enzyme label.

For a further series, the target named is T2, HCAII (Homo sapiens, UniProt P00918).
T2 construct: purchased Sigma
As to the kind of experiment: SPR biosensor analysis, immobilized HCAII. The format is binding. To be noted: ratio of SPR dissociation constants. How it is done: The sixteen polypeptide conjugates were also characterized by SPR biosensor analysis (Biacore®, GE Healthcare), using a Biacore® 2000 instrument, Biacore® CM-5 chip and HBS-EP buffer pH 7.4 (Biacore®, GE Healthcare) with addition of 1% DMSO for the interaction studies. Peptide solutions were prepared by dilution in buffer from 20 μM stock solutions in DMSO. HCAII was immobilized on the chip using standard EDC/NHS coupling in Acetate buffer pH 5.5. The binders were allowed to flow over the chip at 7 concentrations in the range from 1 nM to 500 nM and the interactions were evaluated using a 1:1 binding model (BiaEvaluation).
HCAI and HCAII were immobilized in different flowcells on a CM-5 (Biacore) chip using standard EDC/NHS coupling in Acetate buffer at pH 5.5.
SPR measurements were performed on a Biacore® 2000 instrument, with the proteins immobilized on a Biacore® CM-5 sensor chips (GE Healthcare). All interaction studies were performed in Biacore® HSB-EP buffer with the addition of 1% (v/v) DMSO. HCAII (Sigma, lyophilized powder) was dissolved in Acetate buffer pH 5.5 to a 2 mg/mL solution. HCAII were conjugated to the surface by EDC/NHS coupling reactions in Acetate buffer pH 5.5. Solutions of the polypeptide binders were prepared in HBS-EP buffer from stock solutions of 20 μM in DMSO and allowed to flow over the surface at 20 μL/min, with blank injections after every series. […]
(In general: In SPR one partner is held on a chip, and binding of the other changes the refractive index at the surface.)

The nature of another series: Solubility in buffer. The settings on record: sequence conjugated to a fluorescein probe.

For `O=C(O)c1cc(CN(Cc2ccccn2)Cc2ccccn2)cc(CN(Cc2ccccn2)Cc2ccccn2)c1` [PP1, 3,5-Bis[[bis(2-pyridylmethyl)amino]methyl]benzoic acid], the “dissociation constants for phosphopeptides” value at phosphopeptides is on record as “μM range”.
Turning to “Ac-NAADLEAK([Ahx-Benzoyl(4-SO2NH2)])IRHLAEK(X1)LAARGPVDAAQLAEQLARRFEAFARAG-NH2 (C-terminus assumed) [3-C15L8-B]”, the “proteins extracted from lysed blood” value in series [1] is on record as “extract Carbonic Anhydrases predominantly”.
With “4-C10L17: SEQ ID NO: 8 NAADLEARIKHLRERLKARGPRDAAQLAEQLARAFERFARAG”, the “[θ]222 at high concentration” value in series [2] (high concentration 30-230 μM as listed per peptide) is listed as −19500 deg cm^2 dmol^−1. Further, in series [2] (low concentration 1-5 μM as listed per peptide), the “[θ]222 at low concentration” value was −11800 deg cm^2 dmol^−1. The “effect of α-casein on fluorescence emission spectrum, negative controls” value with α-casein is on record as “No effect”.
Take `Nc1c2ccccc2nc2ccccc12` [9-aminoacridine]: the reported affinity in the series on hAChE [3] was 30 to 100 nM.
In the case of “Ac-NAADLEARIK(X1)HLRERLK([Ahx-Ahx-Acridin9yl])ARGPRDAAQLAEQLARAFERFARAG-NH2 (C-terminus assumed) [4-C10L17-Ac]”, the “capture of hAChE from CSF” value at hAChE [4] was “selectively extract hAChE from CSF”.
Consider “Ac-NAADLEARIRHLRERLAARGPRDAAQLAEQLARK([Ahx-Benzoyl(4-SO2NH2)])FEK(X1)FARAG-NH2 (N-terminus and C-terminus assumed) [4-C37L34-B]”, for which the “discrimination between HCAI and HCAII (factor)” value on HCAII is “approximately 30”. For the same compound, the “proteins extracted from lysed blood” value in series [1] is on record as “extract Carbonic Anhydrases predominantly”. Besides, in “Solubility in buffer”, the solubility in buffer result was “poorly soluble”.
